Where a name gives a salt, the structure may show the parent alone. Read-outs that look alike come from different tables or passages of the source.
Experiments:
[1] = biological target: human Muscarinic M1 receptor (Homo sapiens (Human), UniProt P11229); assay: Allosteric potency EC50 for muscarinic M1 receptor (CHO cells, pCRE-Luc reporter); type: cell-based; details: luciferase activity, 4 hours
Experimental: Determination of Allosteric Potency EC50 Values for Muscarinic M1 Receptor:
A stable CHO cell line expressing recombinant human Muscarinic M1 receptor and pCRE-Luc reporter system was used for cell-based assay. The assay offers a non-radioactive based approach to determine binding of a compound to GPCRs. In this specific assay, the level of intracellular cyclic AMP which is modulated by activation or inhibition of the receptor is measured. The recombinant cells harbor luciferase reporter gene under the control of cAMP response element.
The above cells were grown in 96 well clear bottom white plates in Hams F12 medium containing 10% fetal bovine serum (FBS). Prior to the addition of compounds or standard agonist, cells were serum starved overnight. Increasing concentrations of test compounds were added along with EC20 of acetylcholine in OptiMEM medium to the cells. The incubation was continued at 37° C. in CO2 incubator for 4 hours. Medium was removed and cells were washed with phosphate buffered saline. The cells were lysed and luciferase activity was measured in a Luminometer. Luminescence units were plotted against the compound concentrations using Graphpad software. EC50 values of the compounds were defined as the concentration required in stimulating the luciferase activity by 50% in presence of EC20 of acetylcholine and the results are provided in table 1.

[2] = Rodent brain penetration study; type: in vivo, Male Wistar rats; details: male, Wistar, rat, oral; 3 mg/kg, p.o.; brain-plasma ratio; read-out: Single dose Rat Brain Penetration (Cb/Cp)
Experimental: WO2015044072A1 patent application discloses indole derivatives as M1 PAM compounds. […] This makes these compounds less ideal for the treatment of CNS disorders.
Rodent Brain Penetration Study
Male Wistar rats (260±40 grams) were used as experimental animals. Three animals were housed in each cage. Animals were given water and food ad libitum throughout the experiment and maintained on a 12 hours light/dark cycle.
Brain penetration was determined in discrete manner in rats. One day prior to dosing day, male Wistar rats were acclimatized and randomly grouped according to their weight. At each time point (0.5, 1 and 2 hours) n=3 animals were used.
The test compounds were suitably preformulated and administered orally at (free base equivalent) 3 mg/kg. Blood samples were removed via cardiac puncture by using isoflurane anesthesia. The animals were sacrificed to collect brain tissue. Plasma was separated and brain samples were homogenized and stored frozen at ˜20° C. until analysis. The concentrations of the test compounds in plasma and brain were determined using LC-MS/MS method.
The test compounds were quantified in plasma and brain homogenate by qualified LC-MS/MS method using suitable extraction technique. The test compounds were quantified in the calibration range of 1-500 ng/mL in plasma and brain homogenate. Study samples were analyzed using calibration samples in the batch and quality control samples spread across the batch.

[3] = biological target: M1 (Homo sapiens (Human), UniProt P11229); details: cited from earlier work
[4] = cited from earlier work
[5] = tested on: Male Wistar rats; assay: Object recognition task model; type: in vivo; details: 3 mg/kg, p.o.
Experimental: Object Recognition Task Model
The cognition enhancing properties of compounds of this invention were estimated by using this model.
Male Wistar rats (8-10 weeks old) were used as experimental animals. Four animals were housed in each cage. Animals were kept on 20% food deprivation from a day prior to experimentation. Water was provided ad libitum throughout the experiment. Animals were maintained on a 12 hours light/dark cycle in temperature and humidity controlled room. The experiment was carried out in an open field made up of acrylic. Rats were habituated to individual arenas (open field) for 1 hour in the absence of any objects on day 1.
One group of 12 rats received vehicle and another set of animals received compound of the formula (I), before the familiar (T1) and choice (T2) trials. During the familiarization phase, (T1), the rats were placed individually in the arena for 3 minutes, in which two identical objects (a1 and a2) were positioned 10 cm from the wall. 24 hours after T1, trial for long-term memory test was performed. The same rats were placed in the same arena as they were placed in T1 trial. During the choice phase (T2) rats were allowed to explore the arena for 3 minutes in presence of a copy of familiar object (a3) and one novel object (b). During the T1 and T2 trial, explorations of each object (defined as sniffing, licking, chewing or having moving vibrissae whilst directing the nose towards the object at a distance of less than 1 cm) were recorded using stopwatch. • T1 is the total time spent exploring the familiar objects (a1+a2). • T2 is the total time spent exploring the familiar object and novel object (a3+b). • Discriminative index=Time spent with novel object/(time spent with novel and familiar object).
The object recognition test was performed as described by Behavioural Brain Research, 1988, 31, 47-59 and the results are provided in table 5.

[6] = Protein binding assay (HT dialysis), rat matrices; type: in vitro ADME; details: Mean ± SEM
Experimental: (§1) Unbound fractions of new chemical entities in plasma, brain homogenate and liver microsomes were determined using high-throughput dialysis (HT dialysis). Briefly, dialysis membranes were soaked in deionized water for 20 minutes and then in deionized water with 30% ethanol for 15 minutes and finally in phosphate buffer until use. Membranes were rinsed in phosphate buffer before assembling. The membranes were layered between teflon bars of dialysis assembly. Stock solutions of test compounds were prepared at 10 mM in DMSO, diluted to 1 mM in acetonitrile and further diluted to 100 μM in mixture of water and acetonitrile (1:1 v/v). Human plasma (pool of 3) was prepared from human blood (3 donors) by centrifuging at 4000 rpm for 10 min at 4° C. Rat and dog blood were obtained on the day of the study and centrifuged to obtain plasma. Rat brains were isolated, cleaned and homogenized with 2 volumes of buffer (3 fold dilution). Liver microsomes were prepared at 0.5 mg/mL in phosphate buffer (100 mM, pH 7.4). The dialysate chambers were loaded with 150 μL of 100 mM phosphate buffer (pH 7.4) in triplicates. The matrix chambers were loaded with 150 μL of the plasma or brain homogenate or microsomal suspension spiked with test compounds at a final concentration of 1 μM. 50 μL of the sample was removed from both the chambers at 0 h. The plate was sealed and incubated at 37° C. for 6 h at 100 rpm. After 6 h, 50 μL of the sample was removed from both the chambers. Equal volumes of buffer or human plasma/microsomal suspension were added to the plasma/microsomal and buffer samples respectively to create identical sample matrices for analysis. The samples were precipitated with 150 μL of acetonitrile containing fluoxetine as an internal standard. All the samples were centrifuged at 10000 rpm for 10 minutes at 4° C.

[7] = Protein binding assay (HT dialysis), human matrices; type: in vitro ADME; details: Mean ± SEM
Experimental: as §1

[8] = Protein binding assay (HT dialysis), dog matrices; type: in vitro ADME; details: Mean ± SEM
Experimental: as §1

[9] = Rodent pharmacokinetic study; type: in vivo, Male Wistar rats; details: male, Wistar
Experimental: Rodent Pharmacokinetic Study
Male Wistar rats (260±50 grams) were used as experimental animals. Animals were housed individually in polypropylene cage. Two days prior to study, male Wistar rats were anesthetized with isoflurane for surgical placement of jugular vein catheter. Rats were randomly divided for oral (3 mg/kg) and intravenous (i.v.) (1 mg/kg) dosing (n=3/group) and fasted overnight before oral dosing (p.o.). However, rats allocated to intravenous dosing food and water was provided ad libitum.
At pre-determined point, blood was collected through jugular vein and replenished with an equivalent volume of normal saline. Collected blood was transferred into a labeled eppendorf tube containing 10 μL of heparin as an anticoagulant. Typically blood samples were collected at following time points: 0.08, 0.25, 0.5, 1, 2, 4, 6, 8, and 24 hours post dose. Blood was centrifuged at 4000 rpm for 10 minutes. Plasma was separated and stored frozen at −80° C. until analysis. The concentrations of the test compounds were quantified in plasma by qualified LC-MS/MS method using suitable extraction technique. The test compounds were quantified in the calibration range around 1-1000 ng/mL in plasma. Study samples were analyzed using calibration samples in the batch and quality control samples spread across the batch.
Pharmacokinetic parameters Cmax, AUCt, T1/2, Clearance, and Bioavailability (% F) were calculated by non-compartmental model using standard non-compartmental model by using Phoenix WinNonlin 6.0.2 or 6.0.3 version Software package and the results are tabulated in table 3.

[10] = cited from earlier work; remark: listed apart in the source
[11] = hM1 PAM EC50, in presence of EC20 of acetylcholine
[12] = in presence of EC20 of acetylcholine, read-out: hM1 PAM EC50
[13] = mean ± S.E.M, choice trial 24 hours after T1

Structure (SMILES): O=C(N[C@H]1CCNC[C@H]1F)c1cn(Cc2ccc(F)cc2)c2cccc(F)c12 (single isomer, unassigned; isomer-i) [Example 30, cis-N-(3-Fluoropiperidin-4-yl)-1-(4-fluorobenzyl)-4-fluoro-1H-indole-3-carboxamide hydrochloride (Isomer-I)]
- EC50 [1, 11]: 1.08 µM
- Kp [2]: 1.05 ± 0.53

Structure (SMILES): O=C(N[C@H]1CCCC[C@@H]1O)c1cn(Cc2ccncc2F)c2c(F)ccc(F)c12 [Example 10, N-[(1S,2S)-2-Hydroxycyclohexyl]-1-(5-fluoropyridin-4-ylmethyl)-4,7-difluoro-1H-indole-3-carboxamide]
- EC50 [1, 12]: 0.94 µM
- Kp [2]: 2.4 ± 0.3

Structure (SMILES): N#CC1(c2ccccn2)CCN(Cc2cc(C(=O)O)c(=O)n3ccccc23)CC1 [PQCA, 1-{[4-cyano-4-(pyridine-2-yl)piperidin-1-yl]methyl}-4-oxo-4H-quinolizine-3-carboxylic acid]
- selectivity for M1 over the other muscarinic receptor subtypes [3]: highly selective
- gastrointestinal side effects ([4]; at doses equal to or less than a fivefold margin from the minimum effective dose required to improve cognition): no gastrointestinal side effects
- efficacy in preclinical models of cognition ([4]; several preclinical models of cognition): efficacious

Structure (SMILES): O=C(N[C@H]1CCCC[C@@H]1O)c1cn(Cc2cc(F)ncc2F)c2cccc(F)c12 [Example 11, N-[(1S,2S)-2-Hydroxycyclohexyl]-1-(2,5-difluoropyridin-4-ylmethyl)-4-fluoro-1H-indole-3-carboxamide]
- EC50 [1, 12]: 1.53 µM
- Kp [2]: 1.59 ± 0.35

Structure (SMILES): O=C(N[C@H]1CCCC[C@@H]1O)c1cn(Cc2ccnc(Cl)c2)c2c(F)ccc(F)c12 [Example 6, N-[(1S,2S)-2-Hydroxycyclohexyl]-1-(2-Chloropyridin-4-ylmethyl)-4,7-difluoro-1H-indole-3-carboxamide]
- EC50 [1, 12]: 0.122 µM
- Inference [5]: Active
- Exploration time Familiar object [5, 13]: 15.75 ± 1.71 s
- Exploration time Novel object [5, 13]: 23.67 ± 2.62 s
- fraction unbound at 6 h, 1 μM ([6]; pH 7.4, Rat brain homogenate, 37° C., n = 3, read-out: Fu Brain): 0.014 ± 0.001
- fraction unbound at 6 h, 1 μM ([6]; pH 7.4, Rat liver microsomes 0.5 mg/mL, n = 3, read-out: Fu Microsomes): 0.56 ± 0.048
- fraction unbound at 6 h, 1 μM ([6]; pH 7.4, Rat plasma, 37° C., n = 3, read-out: Fu Plasma): 0.05 ± 0.008
- Kp [2]: 2.09 ± 0.46
- fraction unbound at 6 h, 1 μM ([7]; pH 7.4, Human liver microsomes 0.5 mg/mL, n = 3, read-out: Fu Microsomes): 0.546 ± 0.018
- fraction unbound at 6 h, 1 μM ([7]; pH 7.4, Human plasma, 37° C., n = 3, read-out: Fu Plasma): 0.03 ± 0.003
- fraction unbound at 6 h, 1 μM ([8]; pH 7.4, Dog liver microsomes 0.5 mg/mL, n = 3, read-out: Fu Microsomes): 0.713 ± 0.041
- fraction unbound at 6 h, 1 μM ([8]; pH 7.4, Dog plasma, 37° C., n = 3, read-out: Fu Plasma): 0.043 ± 0.002

Structure (SMILES): COc1ccc(Cn2cc(C(=O)N[C@H]3CCNC[C@H]3F)c3c(F)cccc32)cc1 (single isomer, unassigned; isomer-i) [Example 38, cis-N-(3-Fluoropiperidin-4-yl)-1-(4-methoxybenzyl)-4-fluoro-1H-indole-3-carboxamide hydrochloride (Isomer-I)]
- EC50 [1, 11]: 1.45 µM
- Kp [2]: 1.03 ± 0.17

Structure (SMILES): COc1cccc(Cn2cc(C(=O)N[C@H]3CCNC[C@H]3F)c3c(F)cccc32)c1 (single isomer, unassigned; isomer-i) [Example 35, cis-N-(3-Fluoropiperidin-4-yl)-4-fluoro-1-(3-methoxybenzyl)-1H-indole-3-carboxamide hydrochloride (Isomer-I)]
- EC50 [1, 11]: 1.48 µM
- Kp [2]: 0.72 ± 0.03

Structure (SMILES): O=C(N[C@H]1CCCC[C@@H]1O)c1cn(Cc2cc(F)ncc2F)c2c(F)ccc(F)c12 [Example 12, N-[(1S,2S)-2-Hydroxycyclohexyl]-1-(2,5-difluoropyridin-4-ylmethyl)-4,7-difluoro-1H-indole-3-carboxamide]
- EC50 [1, 12]: 0.432 µM
- Kp [2]: 1.64 ± 0.12
- AUC(0-t) ([9]; iv, 1 mg/kg, rat plasma): 0.609 ± 0.062 µg·h/mL
- half-life ([9]; iv, 1 mg/kg, rat plasma): 1.6 ± 0.5 h
- clearance ([9]; plasma, iv, 1 mg/kg, rat): 1.6 ± 0.204 L/h/kg
- bioavailability ([9]; plasma, oral 3 mg/kg vs i.v. 1 mg/kg, rat, read-out: % F (Bioavailability)): 62 ± 6%
- AUC(0-t) ([9]; oral, 3 mg/kg, rat plasma): 1.14 ± 0.114 µg·h/mL
- Cmax ([9]; oral, 3 mg/kg, rat plasma): 0.337 ± 0.141 µg/mL
- half-life ([9]; oral, 3 mg/kg, rat plasma): 3 ± 3 h

Structure (SMILES): CCCCCCOc1nsnc1C1=CCCN(C)C1 [Xanomeline]
- effects on cognition ([10]; clinical Alzheimer's disease (AD) trial): significant effects on cognition
- gastrointestinal side effects ([10]; clinical trials): gastrointestinal side effects led to a high dropout rate
